Consider 29 molecules from PubChem BioAssay (NCI).

Common to all, as to assay: NCI tumour cell line growth inhibition, 48 h
Assay [1] deals with NCI-H226 lung.
Assay [2] concerns MDA-N.
In assay [3] the test system is OVCAR-3 ovarian.
Assay [4] has as its system OVCAR-4 ovarian.
The test system of assay [5] is MCF7 breast.
Assay [6] has as its system MDA-MB-435.
Assay [7] has as its system SR leukemia.
Assay [8] has as its system IGROV1 ovarian.
Assay [9] concerns A549 NSCLC.
Assay [10] has as its system SK-MEL-5 melanoma.

Each structure is given as a SMILES string.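 Step 1: Grow cells in 96-well plates. Step 2: Expose to compound for 48 hours at 5 concentrations. Step 3: Interpolate endpoints linearly; if unreached, use highest concentration. GI50 is the concentration that inhibits growth by half. Definition used: TGI = concentration required for complete inhibition of growth.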

On to `Cc1cc2ccccc2c[n+]1CC(O)C[n+]1cc2ccccc2cc1C`, for which the TGI in assay [1], in assay [2], in assay [3], in assay [4], in assay [5] and in assay [6] was more than 100 µM throughout. For the same molecule, the TGI in assay [7], in [8], in assay [9] and in assay [10] was more than 100 µM throughout.

As to `O=C(c1ccc2ccccc2c1)C1S(=O)(=O)OCCOS1(=O)=O`, the TGI in assay [2], in assay [3], in [4], in assay [5], in assay [6] and in assay [7] was more than 100 µM each time. In addition, the TGI in [9] and in assay [10] was more than 100 µM in each case.

As to `Cc1cc(C)c(S(=O)(=O)N(CCCCN)OCCCN)c(C)c1`, the TGI in [1] was 31.8 µM; in assay [2], 31.1 µM; in [3], 36.3 µM; in assay [4], 32.3 µM; in [5], 35.3 µM; in assay [6], 30.7 µM. Moreover, the TGI in assay [7] turned out to be 38 µM; in [8], 29.4 µM; in assay [9] it was 36.1 µM; in assay [10], 39.9 µM.

With `C/C(=C/CO[Si](C)(C)C(C)(C)C)C(=O)N(C)c1ccccc1I`, the TGI in assay [1] turned out to be 32.4 µM; in assay [2] it was 31.9 µM; in assay [3], 31.3 µM; in assay [4], 31.2 µM; in assay [5], 30.6 µM; in assay [6] it was 33.7 µM. Further, the TGI turned out to be 51.7 µM in assay [7], 29.9 µM in [8], 32.4 µM in assay [9] and 29 µM in [10].

For `COC(=O)C(/C(=N/NC(=O)c1ccncc1)C(=O)Nc1ccccc1OC)c1nc2ccc(Cl)cc2[nH]c1=O` (configuration not stated), the TGI in assay [1], in assay [2], in [3], in [4], in assay [5] and in assay [6] was more than 100 µM each time. Also, the TGI in assay [7], in [8], in [9] and in assay [10] was more than 100 µM each time.

Regarding `O=C(N/N=C\c1cccc2ccccc12)Nc1ccc([N+](=O)[O-])cc1`, the TGI is more than 100 µM in assay [1]; more than 89 µM in assay [2]; 38.3 µM in assay [3]; more than 71.6 µM in assay [4]; more than 100 µM in [5]; more than 100 µM in [6]. Besides, the TGI in assay [7] was more than 100 µM; in [8], more than 100 µM; in [9], more than 100 µM; in [10] it was more than 87.2 µM.

On to `O=[N+]([O-])c1cccc([N+](=O)[O-])c1S(=O)(=O)c1ccccc1`, for which the TGI in [1] is 36.8 µM; in assay [2], 19.8 µM; in [3], 5.5 µM; in assay [5] it was 43.1 µM; in [6], 14.6 µM; in assay [8], 4.2 µM. In addition, the TGI was determined as 41.8 µM in assay [9] and 28.3 µM in assay [10].

Consider `Cc1cc2ccccc2n1CC(=O)NCC(C)C`, for which the TGI in assay [1], in assay [2], in assay [3], in [4], in [5] and in [6] was more than 100 µM in each case. Further, the TGI in [7], in assay [8], in [9] and in [10] was more than 100 µM throughout.

For the molecule `N#CCCC1C(C#N)C2CC1C1C3C=CC(C3)C21` (configuration not stated), the TGI in [1], in [2], in assay [3], in assay [4], in assay [5] and in assay [6] was more than 100 µM throughout. For the same molecule, the TGI in assay [7], in [8], in assay [9] and in assay [10] was more than 100 µM in each case.

Consider `Cc1ccc2nc3c(C)c(Cl)c(=O)cc-3sc2c1`, for which the TGI is 64 µM in assay [1]; 32.1 µM in [2]; more than 100 µM in [3]; more than 100 µM in assay [4]; 61.8 µM in assay [5]; 39.7 µM in [6]. In addition, the TGI in assay [7] is more than 31.6 µM; in assay [8], more than 100 µM; in assay [9], 98.2 µM; in [10], 29.7 µM.

As to `CC(=O)NC1C(CO)O[C@@H]2OC(C)(C)O[C@H]12` (some centres not stated), the TGI in [2], in [3], in assay [4], in assay [5], in assay [6] and in assay [8] was more than 100 µM throughout. This molecule also returned a TGI in [9] of more than 100 µM.

For the molecule `COc1ccc(C2OC(=O)c3c2ccc2ccccc32)c(C)c1` (configuration not stated), the TGI is 67.6 µM in [1]; 4.34 µM in assay [2]; 10.1 µM in assay [5]; more than 100 µM in [7]; more than 100 µM in assay [8]; 73.4 µM in [9]. This molecule displayed a TGI in assay [10] of 6.82 µM.

On to `Cc1cc(Cc2c(F)c(F)c(Cc3cc(C)no3)c(F)c2F)on1`, for which the TGI in assay [1], in assay [2], in assay [3], in assay [4], in assay [5] and in [6] was more than 100 µM throughout. The TGI in assay [8] is more than 100 µM; in assay [9], 25.8 µM; in assay [10] it was more than 100 µM.

As to `C/C(=N\NC(N)=O)C(CN1CCCCC1)C(c1ccccc1)c1c(O)c2ccccc2oc1=O` (configuration not stated), the TGI in assay [1], in [3], in [4], in [5], in assay [6] and in assay [7] was more than 100 µM each time. The TGI in [8], in assay [9] and in assay [10] was more than 100 µM in each case. Moreover, the GI50 in assay [5] and in [6] was more than 100 µM in each case.

Consider `CN(C(=O)C1(C(=O)C=[N+]=[N-])CC1)c1ccccc1`, for which the TGI in assay [1], in assay [2], in assay [3], in [5], in [6] and in assay [7] was more than 100 µM throughout. For the same molecule, the TGI in assay [8], in assay [9] and in [10] was more than 100 µM each time.

As to `Cc1cccc(C(C)(C)C)c1NC(=O)/C(Cc1nc2ccc([N+](=O)[O-])cc2[nH]c1=O)=N/NC(=O)C[N+](C)(C)C`, the TGI in assay [1], in [2], in [3], in assay [4], in [5] and in assay [6] was more than 100 µM throughout. In addition, the TGI in [8], in [9] and in assay [10] was more than 100 µM in each case.

On to `COC(=O)c1ccc(-c2nc(C#N)c(N)o2)cc1`, for which the TGI in [1], in [3], in assay [4], in assay [5], in [6] and in assay [7] was more than 100 µM each time. The TGI in [8], in assay [9] and in [10] was more than 100 µM each time.

Take `CC(C)(CO)CNc1nc(N)nc(Cl)c1N`: the TGI in assay [1], in [2], in [3], in [4], in assay [5] and in [6] was more than 100 µM in each case. For the same molecule, the TGI in [8], in assay [9] and in assay [10] was more than 100 µM in each case.

`CC(CCC(=O)O)[C@H]1CCC2[C@H]3C(CC[C@@]21C)[C@@]1(C)CCC(O)C[C@H]1C[C@@H]3O` (some centres not stated): the TGI in [1], in [2], in assay [4], in assay [5], in assay [6] and in [7] was more than 100 µM each time. The TGI in assay [8] and in [9] was more than 100 µM in each case.

Turning to `CCC1(CC)C(=O)CC[C@@]2(C)C1=CC[C@H]1[C@@H]3CC[C@H](O)[C@@]3(C)CC[C@@H]12`, the TGI is 87.5 µM in assay [1]; more than 100 µM in assay [2]; 45 µM in assay [3]; more than 100 µM in assay [4]; more than 100 µM in [6]; 31.8 µM in assay [7]. Further, the TGI in assay [8] is more than 100 µM; in assay [9], 28.9 µM; in [10] it was more than 100 µM.

With `Cc1c2c3cc(O)ccc3nc-2n(C)c2ccccc12`, the TGI in assay [1] worked out at 8.54 µM; in assay [2], 8.37 µM; in [3] it was 6.07 µM; in [5] it was 9.82 µM; in assay [6] it was 4.62 µM; in [7], 21.3 µM. Also, the TGI in assay [8] is 8.92 µM; in assay [9], 3.48 µM; in assay [10], 2.29 µM.

In the case of `COC(=O)c1sc(=S)sc1SCc1ccccc1CSc1sc(=S)sc1C(=O)OC`, the TGI in assay [1], in [2], in assay [3], in [4], in [5] and in [6] was more than 100 µM each time. Also, the TGI in [8], in [9] and in assay [10] was more than 100 µM each time.

For `COc1ccc(C2(c3ccc(OC)cc3)OC(=O)c3cccc4cccc2c34)cc1`, the TGI was more than 100 µM in [1]; more than 100 µM in [3]; more than 100 µM in assay [4]; more than 100 µM in assay [5]; more than 100 µM in assay [6]; 44.8 µM in assay [7]. In addition, the TGI in assay [8], in [9] and in assay [10] was more than 100 µM each time.

In the case of `CN=C(Nn1cnnc1)OC`, the TGI in assay [2], in assay [3], in [4], in [5], in [6] and in assay [7] was more than 100 µM in each case. Also, the TGI in assay [8], in [9] and in [10] was more than 100 µM throughout.

Regarding `CCCn1c(C23CC4CC(CC(C4)C2)C3)nc2ccc(Cl)cc2c1=O`, the TGI in assay [1], in assay [2], in assay [3], in assay [4], in assay [5] and in [6] was more than 100 µM in each case. The TGI in assay [8], in assay [9] and in [10] was more than 100 µM each time.

Consider `S=C(N/N=C\C=N/NC(=S)N1CCCCCC1)N1CCCCCC1`, for which the TGI in assay [1], in [2], in [3], in assay [5], in assay [6] and in assay [8] was more than 100 µM in each case. Further, the TGI in assay [9] and in assay [10] was more than 100 µM throughout.

For the molecule `CC(NC(=O)/C(=C/c1ccccc1O)NC(=O)c1ccccc1)C(=O)O` (configuration not stated), the TGI in assay [1] is 45.5 µM; in assay [2], more than 100 µM; in assay [4] it was more than 100 µM; in [5] it was 21.6 µM; in assay [6] it was more than 100 µM; in assay [8], more than 100 µM. Also, the TGI in assay [9] and in assay [10] was more than 100 µM in each case.

With `CCCCCc1cc2c(cc1O)CC[C@@H]1[C@@H]2CC[C@]2(C)[C@@H](O)CC[C@@H]12`, the TGI in [1] is 32.6 µM; in assay [2], 35.1 µM; in [3] it was 29.4 µM; in [4], 42.8 µM; in assay [5], 40.2 µM; in assay [6], 30.6 µM. For the same molecule, the TGI worked out at 36.9 µM in assay [8], 37.9 µM in assay [9] and 34.7 µM in assay [10].

As to `N#Cc1c(Nc2ccc(F)cc2)[n+]([O-])c2ccc(Cl)cc2[n+]1[O-]`, the TGI in assay [1] is 28.8 µM; in assay [2], more than 100 µM; in assay [3], 13.3 µM; in [4], 5.71 µM; in [5] it was 6.1 µM; in [6] it was more than 100 µM. In addition, the TGI stood at 4.02 µM in [8], 35.9 µM in [9] and 23.1 µM in assay [10].
